# Laboratory results published in patent publication US20230301948A1, “REDUCTION OF VIRAL INFECTIONS” (PHOXGEN LIMITED, priority 2020, published 2023).
# Where two headings read alike, the source gives them in different places. Marks after values point to notes of the source that are not given here.
# How the values were obtained:
# cathepsin L protease = target: T1, cathepsin L protease (Homo sapiens, UniProt P07711); assay type: biochemical
# T1 construct: purchased BPS Bioscience
# SpikeS1-ACE2 interaction = target: T2, SpikeS1-ACE2 interaction (UniProt P0DTC2+Q9BYF1); experiment: biochemical; assay type: binding, SARS-CoV-2; conditions: read-out: Percentage inhibition (wrt 100% initial activity)
# T2 construct: Rabbit Fc-tagged SARS-Cov-2 Spike S1 RBD; purchased Cayman Chemical Company
# T1 sequence (P07711 114-333): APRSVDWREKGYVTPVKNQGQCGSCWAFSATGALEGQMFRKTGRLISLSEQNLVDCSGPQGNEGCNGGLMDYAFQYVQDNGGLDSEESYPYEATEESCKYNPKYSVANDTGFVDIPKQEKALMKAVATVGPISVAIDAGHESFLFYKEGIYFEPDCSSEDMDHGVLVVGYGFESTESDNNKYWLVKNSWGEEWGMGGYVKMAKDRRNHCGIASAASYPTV
SMILES,Percentage inhibition (cathepsin L protease; 0.0001 µM) [%],Percentage inhibition (cathepsin L protease; 0.001 µM) [%],Percentage inhibition (cathepsin L protease; 0.01 µM),Percentage inhibition (cathepsin L protease; 0.1 µM),inhibition at 0.01 µg/mL (SpikeS1-ACE2 interaction; 0.01 µg/ml) [%],inhibition at 0.1 µg/mL (SpikeS1-ACE2 interaction; 0.1 µg/ml) [%],inhibition at 1 µg/mL (SpikeS1-ACE2 interaction; 1 µg/ml) [%],inhibition at 10 µg/mL (SpikeS1-ACE2 interaction; 10 µg/ml) [%],inhibition at 50 µg/mL (SpikeS1-ACE2 interaction; 50 µg/ml) [%]
"CC(C)C[C@H](NC(=O)[C@H]1O[C@@H]1C(=O)O)C(=O)NCCCCN=C(N)N [Composition E-64, E-64]",-15.5,-1.1,17.2 ** %,56.3 ** %,,,,,
Cc1cc(O)c2c(c1)C(=O)c1cc(O)cc(O)c1C2=O [Emodin],,,,,35.5,38.9,44.3,48.9,62.8
